ChEMBL document CHEMBL5303573, “Mapping human microbiome drug metabolism by gut bacteria and their genes” (Nature, 2019)

Experiments:
[1] = bacteroides thetaiotaomicron, 12 h, 2 µM
Description: The drug is tested on Bacteroides thetaiotaomicron strain: VPI-5482 for biotransformation. The drug concentrations were measured before and after a 12-h incubation by liquid-chromatography-coupled mass spectrometry (LC–MS)

[2] = victivallis vadensis, 12 h, 2 µM
Description: The drug is tested on Victivallis vadensis strain: ATCC BAA-548 for biotransformation. The drug concentrations were measured before and after a 12-h incubation by liquid-chromatography-coupled mass spectrometry (LC–MS)

[3] = The drug is tested on Bifidobacterium ruminantium strain: fecal isolate for biotransformation. The drug concentrations were measured before and after a 12-h incubation by liquid-chromatography-coupled mass spectrometry (LC–MS); details: 2 µM
[4] = The drug is tested on Blautia hansenii strain: DSM20583 for biotransformation. The drug concentrations were measured before and after a 12-h incubation by liquid-chromatography-coupled mass spectrometry (LC–MS); details: 2 µM
[5] = The drug is tested on Eubacterium ventriosum strain: ATCC27560 for biotransformation. The drug concentrations were measured before and after a 12-h incubation by liquid-chromatography-coupled mass spectrometry (LC–MS); type: ADME; design: dose 2 uM, timepoint 0 vs 12 hours; details: 2 µM
[6] = The drug is tested on Bacteroides ovatus strain: ATCC8483 for biotransformation. The drug concentrations were measured before and after a 12-h incubation by liquid-chromatography-coupled mass spectrometry (LC–MS); details: 2 µM
[7] = The drug is tested on Clostridium spiroforme strain: DSM1552 for biotransformation. The drug concentrations were measured before and after a 12-h incubation by liquid-chromatography-coupled mass spectrometry (LC–MS); details: thomasclavelia spiroformis, 2 µM
[8] = The drug is tested on Clostridium hathewayi strain: DSM13479 for biotransformation. The drug concentrations were measured before and after a 12-h incubation by liquid-chromatography-coupled mass spectrometry (LC–MS); details: hungatella hathewayi, 2 µM

Row | Compound | Bacterial Biotransformation [1] | Bacterial Biotransformation [2] | Bacterial Biotransformation [3] | Bacterial Biotransformation [4] | Bacterial Biotransformation [5] | Bacterial Biotransformation [6] | Bacterial Biotransformation [7] | Bacterial Biotransformation [8]
1 | CC(=O)O[C@H]1C(=O)[C@@]2(C)[C@H]([C@H](OC(=O)c3ccccc3)[C@]3(O)C[C@H](OC(=O)[C@H](O)[C@@H](NC(=O)c4ccccc4)c4ccccc4)C(C)=C1C3(C)C)[C@]1(OC(C)=O)CO[C@@H]1C[C@@H]2O [PACLITAXEL] | Compound NOT metabolized | Compound NOT metabolized | Compound NOT metabolized | – | – | – | – | –
2 | CCC(=O)NCC[C@@H]1CCc2ccc3c(c21)CCO3 [RAMELTEON] | Compound metabolized | – | Compound NOT metabolized | Compound metabolized | Compound NOT metabolized | – | – | –
3 | CC(C)(C)NC[C@H](O)COc1ccccc1C1CCCC1.CC(C)(C)NC[C@H](O)COc1ccccc1C1CCCC1.O=S(=O)(O)O [PENBUTOLOL SULFATE] | Compound NOT metabolized | Compound NOT metabolized | – | – | Compound NOT metabolized | Compound NOT metabolized | – | –
4 | CCN(CC)CCNC(=O)c1cc(S(C)(=O)=O)ccc1OC [TIAPRIDE] | Compound NOT metabolized | – | – | Compound NOT metabolized | – | Compound NOT metabolized | – | –
5 | CCCCC(=O)O[C@]1(C(=O)CO)[C@@H](C)C[C@H]2[C@@H]3CCC4=CC(=O)C=C[C@]4(C)[C@@]3(F)[C@@H](O)C[C@@]21C [BETAMETHASONE VALERATE] | Compound NOT metabolized | Compound metabolized | Compound NOT metabolized | Compound metabolized | – | Compound NOT metabolized | – | –
6 | OC(c1cc(C(F)(F)F)nc2c(C(F)(F)F)cccc12)C1CCCCN1 (centres undefined) [MEFLOQUINE] | Compound NOT metabolized | – | – | – | Compound NOT metabolized | Compound NOT metabolized | – | –
7 | CCCCC(=O)N(Cc1ccc(-c2ccccc2-c2nnn[nH]2)cc1)[C@H](C(=O)O)C(C)C | – | Compound NOT metabolized | Compound NOT metabolized | Compound NOT metabolized | Compound NOT metabolized | Compound NOT metabolized | – | –
8 | CC(C)(C)NCC(O)COc1cccc2c1CC(O)C(O)C2 (centres undefined) [NADOLOL] | Compound NOT metabolized | – | – | – | Compound NOT metabolized | Compound NOT metabolized | – | –
9 | Cc1cc(C)cc(OCC2CNC(=O)O2)c1 (centres undefined) [METAXALONE] | – | – | Compound NOT metabolized | Compound metabolized | Compound NOT metabolized | Compound metabolized | – | –
10 | O=C(O[C@H]1C[C@H]2CC[C@@H](C1)[N+]21CCCC1)C(O)(c1ccccc1)c1ccccc1.[Cl-] [TROSPIUM CHLORIDE] | Compound NOT metabolized | Compound NOT metabolized | Compound NOT metabolized | – | Compound NOT metabolized | Compound NOT metabolized | – | –
11 | CCc1nc(N)nc(N)c1-c1ccc(Cl)cc1 [PYRIMETHAMINE] | Compound NOT metabolized | – | Compound NOT metabolized | Compound NOT metabolized | Compound NOT metabolized | Compound NOT metabolized | – | –
12 | Cc1ccc(/C(=C\CN2CCCC2)c2ccccn2)cc1 [TRIPROLIDINE] | Compound NOT metabolized | – | – | – | Compound NOT metabolized | Compound NOT metabolized | – | –
13 | COc1ccc(/C=C/C(=O)Nc2ccccc2C(=O)O)cc1OC | Compound NOT metabolized | Compound NOT metabolized | – | Compound NOT metabolized | – | Compound metabolized | – | –
14 | CC12CC3CC(C)(C1)CC(N)(C3)C2 [MEMANTINE] | Compound NOT metabolized | – | Compound metabolized | – | – | Compound NOT metabolized | – | –
15 | O=C(NC(Cc1cc(=O)[nH]c2ccccc12)C(=O)O)c1ccc(Cl)cc1 (centres undefined) [REBAMIPIDE] | Compound NOT metabolized | Compound NOT metabolized | Compound NOT metabolized | Compound NOT metabolized | – | Compound NOT metabolized | – | –
16 | COc1c2occc2cc2ccc(=O)oc12 [METHOXSALEN] | Compound NOT metabolized | – | Compound NOT metabolized | Compound metabolized | Compound NOT metabolized | – | Compound NOT metabolized | Compound metabolized
17 | CN(C)C(=O)C(CCN1CCC(O)(c2ccc(Cl)cc2)CC1)(c1ccccc1)c1ccccc1 [LOPERAMIDE] | Compound NOT metabolized | Compound NOT metabolized | – | Compound metabolized | Compound NOT metabolized | – | – | –
18 | COC(=O)[C@H]1[C@H]2C[C@@H]3c4[nH]c5cc(OC)ccc5c4CCN3C[C@H]2C[C@@H](OC(=O)c2cc(OC)c(OC)c(OC)c2)[C@@H]1OC [RESERPINE] | Compound NOT metabolized | Compound NOT metabolized | Compound NOT metabolized | Compound NOT metabolized | – | Compound NOT metabolized | – | –
